Measured values as given in US20030212109A1, “Pharmaceutical compositions and their use” (priority 2000, published 2003).

Key:
5-HT concentrations [1] = assay: Brain microdialysis, acute oral administration; 5-HT in perfusate by HPLC with electrochemical detection; format: in vivo; conditions: brain dialysate
Procedure: (§1) Animals with dialysis probes inserted in brain regions were placed in the dialysis apparatus and the probes perfused with artificial cerebrospinal fluid. Samples of perfusate were collected every 20 minutes after an initial 30 minute washout period. Basal samples were collected for 2 hours before administration of drug or vehicle by the oral route. Further samples were collected for up to 4 hours post drug administration. Samples were analysed for 5-HT by HPLC with electrochemical detection.
Data was expressed as a percentage of a pre-injection control, obtained by averaging the last three samples prior to drug/vehicle administration. Transformed data (natural log of percentages) was analysed by ANOVA with repeated measures.

5-HT concentrations [2] = assay: Brain microdialysis after chronic (21 day) administration; 5-HT in perfusate; format: in vivo; conditions: 10 mg/kg, percentage increase over vehicle treated controls
Procedure: as §1
The method differed from that for acute administration in that animals were treated with fluoxetine or vehicle for 21 days prior to placement in the dialysis apparatus. The subsequent manipulations were as described above. The 5-HT concentration in the treated group was expressed as the percentage increase over vehicle treated controls.

Structure (SMILES)	% increase in 5-HT concentrations (5-HT concentrations [1]; 10 mg/kg, oral) [%]	% increase in 5-HT concentrations (5-HT concentrations [1]; 10 or 20 mg/kg, oral (maximum possible response)) [%]	% increase in 5-HT concentrations (5-HT concentrations [2]) [%]
CC1(C)C(=O)N(CCN2CCC(C(=O)c3ccc(F)cc3)CC2)c2ccccc21.Cl [Compound of formula (I), 1-[2-[4-(4-fluorobenzoyl)-1-piperidinyl]ethyl]-1,3-dihydro-3,3-dimethyl-2H-indol-2-one, monohydrochloride]	110	–	–
CNCCC(Oc1ccc(C(F)(F)F)cc1)c1ccccc1 (stereo not drawn) [Fluoxetine, N-methyl-3-(p-trifluoromethylphenoxy)-3-phenylpropylamine]	–	99	184
